Test results taken from US12357711B2, “PSMA binding dual mode radiotracer and therapeutic” (Technische Universität München, priority 2019, dated 2025).
Where “and” joins values, the source holds several entries; their conditions need not be identical. Identical values can stand only once. Marks after values point to notes of the source that are not given here.

Columns and labels:
[1] = test system: LNCaP tumor bearing mouse; experiment: Radio-TLC analysis of intact tracer and 18F-fluoride in blood, organ and urine samples, 30 min p.i.; assay type: in vivo, mice
Protocol: For radio-thin-layer chromatography, aluminum sheets coated with silica gel 60 RP-18 F254s were used with a mobile phase consisting of a 3:2 mixture (v/v) of MeCN in H2O supplemented with 10% of 2 M aqueous NaOAc and 1% of TFA. Analysis was performed using either a Scan-RAM radio-TLC detector (LabLogic Systems Ltd., Sheffield, United Kingdom) or a CR 35 BIO phosphorimager (Duerr Medical GmbH, Bietigheim-Bissingen, Germany).
In order to quantify the relative uptake of each isomer (rhPSMA-7.1-7.4), a tumor-bearing male CB-17-SCID mouse was injected with the racemic mixture of rhPSMA-7 (180-280 MBq, SA=247-349 GBq/μmol, produced at the Klinikum rechts der Isar in a fully automated procedure). The animal was left under anesthesia for 30 min and sacrificed. Urine, blood, liver, kidneys and tumor were collected and processed to the hereafter described procedures. The urine sample was centrifuged for 5 min at 9000 rpm to yield a clear solution and directly subjected to radio-HPLC analysis. Blood was diluted to 1 mL with H2O and centrifuged twice at 13000 g for 5 min. The supernatant was collected and loaded on a Strata X cartridge (33 μm Polymeric Reversed Phase 500 mg, pre-conditioned with 5 mL MeOH, followed by 5 mL H2O). After washing with 5 mL H2O, the cartridge was eluted with a 6:4 mixture (v/v) of MeCN in H2O, supplemented with 1% TFA. The eluate was diluted with water and analysed by radio-HPLC. Tumour, kidneys and liver were homogenised using either a Potter-Elvehjem tissue grinder (Kontes Glass Co, Vineland, USA) or a MM-400 ball mill (Retsch GmbH, Haan, Germany).
The organs (tumour, kidney, liver) were separately homogenised in a 2 mL tube together with 3 grinding balls (3 mm diameter) and 1 mL of extraction buffer (850 μL 1 M HEPES pH7.4, 100 μL 20 mM PMPA and 100 μL 1M NaCl) for 10 min at 30 Hz. The homogenate was centrifuged at 13000 g for 5 min and the supernatant was collected. Subsequently, the pellet was suspended in 1 mL of extraction buffer and homogenized again with the ball mill for 10 min at 30 Hz. After centrifugation (13000 g, 5 min), both supernatants were combined and loaded on a Strata X cartridge (33 μm Polymeric Reversed Phase 500 mg, pre-conditioned with 5 mL MeOH, followed by 5 mL H2O). After washing with 5 mL H2O, the cartridge was eluted with a 6:4 mixture (v/v) of MeCN in H2O, supplemented with 1% TFA. The eluate of each organ was diluted with water and analysed by radio-HPLC.
Radio-TLC Analysis was carried out a) on urine samples by directly subjecting a small volume onto a TLC strip, b) by analysis of a small volume of the non-immobilized activity during the SPE process (the ‘breakthrough fraction’), and c) by analysis of a small volume of the cartridge eluates.
Since none of the reagents and salts normally used for protein precipitation are tested for cold fluoride and to avoid possible liberation of F-18-fluoride from the tracer by isotopic exchange, protein precipitation was not implemented in the sample preparation process—although such protein load often result in limited peak separation, peak tailing and activity that sticks at the start line. The solutions obtained after tissue extraction (or blood centrifugation) were directly used for TLC analysis.

[2] = Octanol-water partition coefficient (n-octanol/PBS pH 7.4); assay type: physicochemical; conditions: octanol/PBS7.4
Protocol: Approximately 1 MBq of the labeled tracer was dissolved in 1 mL of a 1:1 mixture (by volumes) of phosphate buffered saline (PBS, pH 7.4) and n-octanol in an Eppendorf tube. After vigorous mixing of the suspension for 3 minutes at room temperature, the vial was centrifuged at 15000 g for 3 minutes (Biofuge 15, Heraus Sepatech, Osterode, Germany) and 100 μL aliquots of both layers were measured in a gamma counter. The experiment was repeated at least six times.
Determianation of the IogP values was carried out in phosphate buffered saline (PBS, pH 7.4) and n-octanol (=logPoct/PBS).

[3] = test system: LNCaP tumor-bearing SCID mice; experiment: Biodistribution at 1 h p.i. with competition (co-injected PMPA); assay type: in vivo; conditions: co-injected with PMPA (8 mg/kg)
Protocol: FIG. 11: Biodistribution [% ID/g] of ^18F-rhPSMAs co-injected with PMPA (8 mg/kg) at 1 h p.i in LNCaP tumor-bearing SCID mice. Data are expressed as mean±SD (n=3).

[4] = test system: PSMA-positive LNCaP cells; experiment: Internalization in LNCaP cells, normalized to ([125I]I-BA)KuE; assay type: cell-based; conditions: LNCaP cells, 1 hour, 37° C.
Protocol: Data is corrected for non-specific binding ([…]) and expressed as mean±SD (n=3).
Subsequent to the removal of the culture medium, the cells were washed once with 500 μL DMEM-F12 (5% BSA) and left to equilibrate for at least 15 min at 37° C. in 200 μL DMEM-F12 (5% BSA). Each well was treated with either 25 μL of either DMEM-F12 (5% BSA) or a 100 μM PMPA solution for blockade. Next, 25 μL of the ^68Ga/^18F-labeled PSMA inhibitor (5.0 nM) was added and the cells incubated at 37° C. for 60 min. The experiment was terminated by placing the 24-well plate on ice for 3 min and consecutive removal of the medium. Each well was rinsed with 250 μL HBSS and the fractions from these first two steps combined, representing the amount of free radioligand. Removal of surface bound activity was accomplished by incubation of the cells with 250 μL of ice-cold PMPA (10 μM in PBS) solution for 5 min and rinsed again with another 250 μL of ice-cold PBS. The internalized activity was determined by incubation of the cells in 250 μL 1 M NaOH and the combination with the fraction of a subsequent wash step with 250 μL 1.0 M NaOH. Each experiment (control and blockade) was performed in triplicate. Free, surface bound and internalized activity was quantified in a γ-counter. […] Data were corrected for non-specific internalization and normalized to the specific-internalization observed for the radioiodinated reference compound.

[5] = Phosphoimager, listed as [^18F]rhPSMA7-rac
[6] = TLC Scanner, listed as [^18F]rhPSMA7-rac

For “[^19F][^natGa]D/L-Dap-R/S-DOTAGA-rhPSMA7 [rhPSMA7-rac]”, the “Intact tracer, Blood” value ([1]; Phosphoimager) was 96.80%, the “Intact tracer, Kidney” value ([1]; Phosphoimager) was 96.48% and the “Intact tracer, Tumor” value ([1]; Phosphoimager) was 96.47%. For the same molecule, the “^18F-Fluoride, Blood” value ([1]; Phosphoimager) was 3.20%, the “^18F-Fluoride, Kidney” value ([1]; Phosphoimager) was 3.52% and the “^18F-Fluoride, Tumor” value ([1]; Phosphoimager) was 4.15%. The “Intact tracer, Liver” value [1, 5] was 93.92^# % and 74.15^# %, the “Intact tracer, Urine” value [1, 5] was 98.55% and 95.85% and the “^18F-Fluoride, Urine” value [1, 5] was 1.55% and 4.15%. The “Intact tracer, Kidney” value [1, 6] was 94.04% and 94.58%, the “Intact tracer, Urine” value [1, 6] was 82.51% and 96.2% and the “^18F-Fluoride, Kidney” value [1, 6] was 5.96% and 5.42%.

With CC(C)(C)[Si](F)(c1ccc(C(=O)NC[C@@H](NC(=O)CC[C@@H](C(=O)O)N2CCN(CC(=O)[O-])CCN(CC(=O)[O-])CCN(CC(=O)[O-])CC2)C(=O)N[C@H](CCCCNC(=O)CCC(=O)NCCC[C@@H](NC(=O)CC[C@H](NC(=O)N[C@@H](CCC(=O)O)C(=O)O)C(=O)O)C(=O)O)C(=O)O)cc1)C(C)(C)C.[Ga+3] [rhPSMA7.3, [^19F][^natGa]D-Dap-S-DOTAGA-rhPSMA7] the “log P Mean” value ([2]; mean of individual measurements) was −3.26, the “individual log P measurements” value ([2]; single measurements) was −3.06 and −3.07 and −2.86 and −3.39 and −3.33 and −3.34 and −3.20 and −3.40 and −3.41 and −3.48 and −3.49 and −3.32 and −3.45 and −3.53 and −3.43 and −3.56 and −3.03 and −3.08 and −3.02 and the Biodistribution adrenals [3] was 0.07 ± 0.09 % ID/g. The Biodistribution blood [3] was 0.55 ± 0.14 % ID/g, the Biodistribution bone [3] was 0.34 ± 0.22 % ID/g and the Biodistribution heart [3] was 0.26 ± 0.04 % ID/g. The Biodistribution intestine [3] was 0.94 ± 0.97 % ID/g, the Biodistribution kidneys [3] was 15.5 ± 2.2 % ID/g and the Biodistribution liver [3] was 0.46 ± 0.14 % ID/g. It also gave a Biodistribution lung [3] of 0.69 ± 0.10 % ID/g, a Biodistribution muscle [3] of 0.09 ± 0.02 % ID/g and a Biodistribution pancreas [3] of 0.11 ± 0.02 % ID/g. It also gave a Biodistribution spleen [3] of 0.35 ± 0.02 % ID/g, a Biodistribution stomach [3] of 0.76 ± 0.74 % ID/g and a Biodistribution tumor ([3]; LNCaP tumor) of 1.5 ± 0.4 % ID/g. The individual internalization rates ([4]; c=0.5 nM, single measurements) was 156.6 % of [^125I]IB-KuE and 156.0 % of [^125I]IB-KuE and 171.7 % of [^125I]IB-KuE and the “internalization rate Mean” value ([4]; mean) was 161.41 % of [^125I]IB-KuE.
